Common to all, as to format: cell-based
The test system of test [1] is Helicobacter pylori No. 3. In words: MIC, agar plating dilution, clinical segregation strain. As to conditions: Strain 6: Helicobacter pylori No. 3. The procedure: (§1) Minimum Inhibitory Concentration (MIC) was measured in accordance with the standard method of Japanese Chemotherapy Academy (Chemotherapy, 29: 76-79, 1981). Sensitivity was measured with an agar plating dilution using Brain-Heart Infusion agar (Difco Co.) which was added 0.1% of cyclodextrin. […] of the solutions of the compounds which were obtained in examples of the present invention was prepared by dissolving in dimethylsulfoxide. […] Each of 1 ml of those prepared solutions was dispensed in share, after sterilization, 9 ml of sensitivity measuring medium which is kept at 50° C. was added to each, and they were sufficiently mixed. The mixture was used as a plate for measuring sensitivity. Brain Heart Infusion agar medium (Difco Co.), which was added 0.1% of cyclodextrin, was used as bacteria growing medium, and was cultured under microair at 37° C. for three days, and the number of bacteria thereof was adjusted to about 106/ml. This was used as a bacterial solution for inoculation. The medium was painted in each square about 2 cm with nichromic line loop. The medium was cultured under microair for three days at 37° C. […] The each result is shown at Table 4.

The subject of test [2] is Helicobacter pylori No. 2. Described as above. As to conditions: Strain 5: Helicobacter pylori No. 2. The method, then: as §1
Test [3] has as its system Helicobacter pylori No. 1. The test is described as above. The settings on record: Strain 4: Helicobacter pylori No. 1. The procedure: as §1
The subject of test [4] is Helicobacter pylori No. 4. The test is described as above. The settings on record: Strain 7: Helicobacter pylori No. 4. The procedure:
as §1

The test system of test [5] is Helicobacter pylori ATCC 43504. In words: MIC, agar plating dilution (standard method of Japanese Chemotherapy Academy). As to conditions: Objected Strain 1: Helicobacter pylori ATCC 43504. The procedure: (§2) 1. Minimum Inhibitory Concentration (MIC) was measured in accordance with the standard method of Japanese Chemotherapy Academy (Chemotherapy, 29: 76-79, 1981). Sensitivity was measured with an agar plating dilution using Brain-Heart Infusion agar (Difco Co.) which was added 0.1% of cyclodextrin. […] of the solutions of the compounds which were obtained in examples of the present invention was prepared by dissolving in dimethylsulfoxide. […] Each of 1 ml of those prepared solutions was dispensed in share, after sterilization, 9 ml of sensitivity measuring medium which is kept at 50° C. was added to each, and they were sufficiently mixed. The mixture was used as a plate for measuring sensitivity. Brain Heart Infusion agar medium (Difco Co.), which was added 0.1% of cyclodextrin, was used as bacteria growing medium, and was cultured under microair at 37° C. for three days, and the number of bacteria thereof was adjusted to about 106/ml. This was used as a bacterial solution for inoculation. The medium was painted in each square about 2 cm with nichromic line loop. The medium was cultured under microair for three days at 37° C.

For test [6], the system named is Helicobacter pylori ATCC 43629. Described as above. As to conditions: Objected Strain 2: Helicobacter pylori ATCC 43629. The method, then:
as §2

The subject of test [7] is Escherichia coli NIH JC-2. The experiment in a line: MIC, standard method of Japanese Chemotherapy Academy. The settings on record: Objected Strain 3: Escherichia coli NIH JC-2. The method, then:
(§3) 1. Minimum Inhibitory Concentration (MIC) was measured in accordance with the standard method of Japanese Chemotherapy Academy (Chemotherapy, 29: 76-79, 1981).

In test [8] the test system is Staphylococcus aureus No. 2 (MRSA). The test is described as above. The settings on record: Strain 14: Staphylococcus aureus No. 2 (MRSA). The method, then: as §3
(§4) And MIC of the compounds of Example 3, 36, 8, 14, 17, 21, 41 and 45 were measured.

The test system of test [9] is Staphylococcus aureus ATCC 6538. The test is described as above. The settings on record: Strain 12: Staphylococcus aureus ATCC 6538. The method, then: as §3, §4
Test [10] concerns Bacillus subtilis ATCC 6633. Described as above. The settings on record: for MIC: Strain 13: Bacillus subtilis ATCC 6633; for MIC against bacillus subcillus ATCC 6633: standard method of Japanese Chemotherapy Academy. The procedure:
as §3, §4

In test [11] the test system is Staphylococcus aureus 209PJC. The description is as above. As to conditions: Strain 11: Staphylococcus aureus 209PJC. The method, then:
as §3, §4

The subject of test [12] is Helicobacter pylori No. 28. In words: MIC, agar plating dilution, clinical segregation strain. As to conditions: Strain 10: Helicobacter pylori No. 28. The procedure: as §1
For test [13], the system named is Helicobacter pylori No. 20. Described as above. As to conditions: Strain 9: Helicobacter pylori No. 20. The procedure:
as §1

Test [14] has as its system Helicobacter pylori No. 19. Described as above. The settings on record: Strain 8: Helicobacter pylori No. 19. The method, then:
as §1

Bounds are passed on as bounds.

From patent publication US6831190B1, “Guanidinomethyl cyclohexane carboxylic acid ester derivatives” (Teikoku Chemical Industries Co., Ltd., priority 1994, dated 2004) come the findings set out here.

Consider `Cl.N=C(N)NC[C@H]1CC[C@H](C(=O)Oc2ccc(-c3ccc(C(=O)OCc4ccccc4)cc3)cc2)CC1` [Example 3, trans-4-guanidinomethyl cyclohexane carboxylic acid [4-(4-benzyloxycarbonylphenyl)phenylester].hydrochloride], for which the MIC was determined as 0.10 µg/mL in test [1]; 0.39 µg/mL in test [2]; 0.20 µg/mL in test [3]; 0.39 µg/mL in test [4]; 0.78 µg/mL in test [5]; 0.39 µg/mL in [6]. Further, the minimal inhibitory concentration (MIC) is more than 25 µg/mL in [7]; 3.13 µg/mL in [8]; 6.25 µg/mL in [9]; 25 µg/mL in test [10]; 3.13 µg/mL in [11]. In addition, the MIC against bacillus subcillus ATCC 6633 in test [10] was more than 25 µg/mL.
As for `CC(C)(C)c1ccc(COC(=O)c2ccc(-c3ccc(OC(=O)[C@H]4CC[C@H](CNC(=N)N)CC4)cc3)cc2)cc1.Cl` [Example 17, trans-4-guanidinomethyl cyclohexane carboxylic acid [4-[4-(4-t-butylbenzyloxy carbonyl)phenyl]phenylester].hydrochloride], the MIC in test [1] is 0.20 µg/mL; in test [2], 0.39 µg/mL; in [3], 0.20 µg/mL; in test [4] it was 0.20 µg/mL; in [5], 0.78 µg/mL; in [6], 0.39 µg/mL. For the same compound, the minimal inhibitory concentration (MIC) in test [7], in [8], in test [9], in [10] and in test [11] was more than 25 µg/mL throughout. The compound also displayed an MIC against bacillus subcillus ATCC 6633 in test [10] of more than 25 µg/mL.
Consider `Cl.N=C(N)NC[C@H]1CC[C@H](C(=O)Oc2ccc(-c3ccc(C(=O)OCc4ccc(C(F)(F)F)cc4)cc3)cc2)CC1` [Example 21, trans-4-guanidinomethyl cyclohexane carboxylic acid [4-[4-(4-trifuluoromethyl benzyloxycarbonyl)phenyl]phenylester].hydrochloride], for which the MIC in [1] was 0.10 µg/mL; in [2] it was 0.39 µg/mL; in test [3], 0.20 µg/mL; in test [4], 0.39 µg/mL; in test [5] it was 0.39 µg/mL; in [6], 0.78 µg/mL. Further, the MIC was more than 25 µg/mL in test [7]; more than 25 µg/mL in test [8]; more than 25 µg/mL in [9]; more than 25 µg/mL in test [10]; 25 µg/mL in [11]. This compound also came in with an MIC against bacillus subcillus ATCC 6633 in [10] of more than 25 µg/mL.
As for `Cc1ccc(COC(=O)c2ccc(-c3ccc(OC(=O)[C@H]4CC[C@H](CNC(=N)N)CC4)cc3)cc2)c(C)c1.Cl` [Example 25, trans-4-guanidinomethyl cyclohexane carboxylic acid[4-[4-(2,4-dimethylbenzyloxycarbonyl)phenyl]phenylester].hydrochloride], the MIC in [1] is 0.20 µg/mL; in [2] it was 0.39 µg/mL; in [3], 0.39 µg/mL; in test [4], 0.39 µg/mL; in test [5], 0.39 µg/mL; in test [6], 0.78 µg/mL. The MIC in test [7] was more than 25 µg/mL. The MIC against bacillus subcillus ATCC 6633 in [10] was more than 25 µg/mL.
As to `Cl.N=C(N)NC[C@H]1CC[C@H](C(=O)Oc2ccc(-c3ccc(C(=O)OCCc4ccccc4)cc3)cc2)CC1` [Example 26, trans-4-guanidinomethyl cyclohexane carboxylic acid[4-[4-(2-phenylethyloxycarbonyl)phenyl]phenylester].hydrochloride], the MIC was determined as 0.10 µg/mL in [1]; 0.39 µg/mL in test [2]; 0.20 µg/mL in test [3]; 0.20 µg/mL in [4]; 0.39 µg/mL in test [5]; 0.78 µg/mL in test [6]. In test [7], the MIC is more than 25 µg/mL. The compound also showed an MIC against bacillus subcillus ATCC 6633 in [10] of more than 25 µg/mL.
Consider `CCOC(=O)c1ccc(Oc2ccc(OC(=O)[C@H]3CC[C@H](CNC(=N)N)CC3)cc2)cc1.Cl` [Example 36, trans-4-guanidinomethyl cyclohexane carboxylic acid[4(4-ethoxycarbonylphenyloxy)phenylester].hydrochloride], for which the MIC in test [5] is 6.25 µg/mL; in test [6], 6.25 µg/mL; in test [7] it was more than 25 µg/mL; in [8] it was 6.25 µg/mL; in test [10], 25 µg/mL; in test [11], 6.25 µg/mL.
For `Cc1ccccc1COC(=O)c1ccc(-c2ccc(OC(=O)[C@H]3CC[C@H](CNC(=N)N)CC3)cc2)cc1.Cl` [Example 43, trans-4-guanidinomethyl cyclohexane carboxylic acid[4-[4-(2-methylbenzyloxycarbonyl)phenyl]phenylester].hydrochloride], the MIC in test [1] came to 0.20 µg/mL; in [12], 0.39 µg/mL; in [13] it was 0.39 µg/mL; in [2], 0.20 µg/mL; in test [3], 0.20 µg/mL; in [4] it was 0.78 µg/mL. The MIC in [14] was 0.10 µg/mL; in [5], 0.20 µg/mL; in test [6] it was 0.39 µg/mL; in [7] it was more than 25 µg/mL.
In the case of `Cc1cccc(COC(=O)c2ccc(-c3ccc(OC(=O)[C@H]4CC[C@H](CNC(=N)N)CC4)cc3)cc2)c1.Cl` [Example 44, trans-4-guanidinomethyl cyclohexane carboxylic acid[4-[4-(3-methylbenzyloxycarbonyl)phenyl]phenylester].hydrochloride], the MIC in test [1] was 0.20 µg/mL; in test [12] it was 0.39 µg/mL; in test [13] it was 0.20 µg/mL; in [2] it was 0.39 µg/mL; in test [3], 0.39 µg/mL; in test [4], 0.78 µg/mL. Also, the MIC is 0.20 µg/mL in test [14], 0.20 µg/mL in [5], 0.20 µg/mL in [6] and more than 25 µg/mL in test [7].
For the compound `Cc1ccc(CCOC(=O)c2ccc(-c3ccc(OC(=O)[C@H]4CC[C@H](CNC(=N)N)CC4)cc3)cc2)cc1.Cl` [Example 46, trans-4-guanidinomethyl cyclohexane carboxylic acid[4-[4-[2-(4-methylphenyl)ethyloxycarbonyl)phenyl]phenylester].hydrochloride], the MIC in test [1] worked out at 0.20 µg/mL; in test [12] it was 0.39 µg/mL; in test [13], 0.20 µg/mL; in test [2] it was 0.39 µg/mL; in [3], 0.39 µg/mL; in [4], 3.13 µg/mL. Besides, the MIC in [14] was 0.39 µg/mL; in [5] it was 0.78 µg/mL; in [6], 0.78 µg/mL; in test [7], more than 25 µg/mL.
